Assay results taken from PubChem BioAssay (NCI).
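Values below derive from 48-hour exposures of cells grown in 96-well plates, with endpoints linearly interpolated between the two concentrations bracketing the appropriate inhibition level. GI50 marks 50% less growth. TGI: concentration producing complete growth inhibition.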

Assays:
Test in all cases: NCI anticancer screen, dose series, 48 h; in the data active means GI50 below about 0.43 µM; inactive means the rest
HL-60(TB) leukemia = tested on: HL-60(TB) leukemia
SF-539 CNS = tested on: SF-539 CNS
HT29 colon = tested on: HT29 colon
SW-620 colon = tested on: SW-620 colon
TK-10 renal = tested on: TK-10 renal
SK-OV-3 ovarian = tested on: SK-OV-3 ovarian
DU-145 prostate = tested on: DU-145 prostate
SK-MEL-28 melanoma = tested on: SK-MEL-28 melanoma
SK-MEL-5 melanoma = tested on: SK-MEL-5 melanoma
K-562 leukemia = tested on: K-562 leukemia
SN12C renal = tested on: SN12C renal
KM12 colon = tested on: KM12 colon
SNB-75 CNS = tested on: SNB-75 CNS
IGROV1 ovarian = tested on: IGROV1 ovarian
RPMI-8226 leukemia = tested on: RPMI-8226 leukemia
HOP-62 NSCLC = tested on: HOP-62 NSCLC
U251 CNS = tested on: U251 CNS
786-0 renal = tested on: 786-0 renal
NCI-H226 lung = tested on: NCI-H226 lung
HS 578T breast = tested on: HS 578T breast
MDA-MB-231 breast = tested on: MDA-MB-231 breast
T-47D breast = tested on: T-47D breast
SF-295 CNS = tested on: SF-295 CNS
UACC-62 melanoma = tested on: UACC-62 melanoma
HCT-116 colon = tested on: HCT-116 colon
NCI-H23 lung = tested on: NCI-H23 lung
M14 melanoma = tested on: M14 melanoma
HOP-92 NSCLC = tested on: HOP-92 NSCLC
BT-549 breast = tested on: BT-549 breast
ACHN renal = tested on: ACHN renal
A549 NSCLC = tested on: A549 NSCLC
CCRF-CEM leukemia = tested on: CCRF-CEM leukemia
A498 renal = tested on: A498 renal
MDA-MB-435 = tested on: MDA-MB-435
OVCAR-5 ovarian = tested on: OVCAR-5 ovarian
NCI-H522 lung = tested on: NCI-H522 lung
UO-31 renal = tested on: UO-31 renal
MALME-3M melanoma = tested on: MALME-3M melanoma
NCI-H460 lung = tested on: NCI-H460 lung
SNB-19 CNS = tested on: SNB-19 CNS
PC-3 prostate = tested on: PC-3 prostate
NCI/ADR-RES ovarian = tested on: NCI/ADR-RES ovarian
RXF 393 renal = tested on: RXF 393 renal
COLO 205 colon = tested on: COLO 205 colon
OVCAR-8 ovarian = tested on: OVCAR-8 ovarian
HCT-15 colon = tested on: HCT-15 colon
SK-MEL-2 melanoma = tested on: SK-MEL-2 melanoma
SF-268 CNS = tested on: SF-268 CNS
OVCAR-3 ovarian = tested on: OVCAR-3 ovarian
SR leukemia = tested on: SR leukemia
OVCAR-4 ovarian = tested on: OVCAR-4 ovarian
UACC-257 melanoma = tested on: UACC-257 melanoma
EKVX NSCLC = tested on: EKVX NSCLC
CAKI-1 renal = tested on: CAKI-1 renal
LOX IMVI melanoma = tested on: LOX IMVI melanoma
MCF7 breast = tested on: MCF7 breast
MOLT-4 leukemia = tested on: MOLT-4 leukemia
HCC-2998 colon = tested on: HCC-2998 colon

CNC(=O)c1nn(C)c2c1C(C)(C)Cc1cnc(Nc3ccc(N4CCN(C)CC4)cc3)nc1-2
2390 nM: TGI (UO-31 renal)
> 5550 nM: TGI (T-47D breast)
2290 nM: TGI (SNB-75 CNS)
> 2350 nM: TGI (HOP-92 NSCLC)
8620 nM: TGI (ACHN renal)
> 8250 nM: TGI (SK-MEL-2 melanoma)
861 nM: TGI (A498 renal)
> 9480 nM: TGI (HCT-116 colon)
> 8770 nM: TGI (BT-549 breast)
1220 nM: TGI (CAKI-1 renal)
> 7260 nM: TGI (NCI-H23 lung)
> 4500 nM: TGI (RXF 393 renal)
9840 nM: TGI (HOP-62 NSCLC)
> 3980 nM: TGI (RPMI-8226 leukemia)
active: GI50 (TK-10 renal) 116 nM | GI50 (SK-OV-3 ovarian) 209 nM | GI50 (K-562 leukemia) 356 nM | GI50 (KM12 colon) 347 nM | GI50 (SNB-75 CNS) 304 nM | GI50 (IGROV1 ovarian) 182 nM | GI50 (HS 578T breast) 369 nM | GI50 (T-47D breast) 261 nM | GI50 (HCT-116 colon) 346 nM | GI50 (M14 melanoma) 248 nM | GI50 (HOP-92 NSCLC) 174 nM | GI50 (ACHN renal) 424 nM | GI50 (A498 renal) 139 nM | GI50 (NCI-H522 lung) 327 nM | GI50 (UO-31 renal) 169 nM | GI50 (NCI-H460 lung) 408 nM | GI50 (SNB-19 CNS) 322 nM | GI50 (PC-3 prostate) 368 nM | GI50 (RXF 393 renal) 343 nM | GI50 (COLO 205 colon) 313 nM | GI50 (HCT-15 colon) 337 nM | GI50 (CAKI-1 renal) 114 nM | GI50 (MCF7 breast) 238 nM
> 5290 nM: TGI (MOLT-4 leukemia)
> 8570 nM: TGI (NCI-H226 lung)
> 9240 nM: TGI (MALME-3M melanoma)
> 5540 nM: TGI (NCI-H522 lung)
3120 nM: TGI (COLO 205 colon)
1600 nM: TGI (IGROV1 ovarian)
> 9010 nM: TGI (OVCAR-5 ovarian)
> 9150 nM: TGI (UACC-257 melanoma)
> 8340 nM: TGI (OVCAR-4 ovarian)
> 8530 nM: TGI (M14 melanoma)
> 6030 nM: TGI (SF-539 CNS)
> 10000 nM: TGI (HL-60(TB) leukemia) | TGI (HT29 colon) | TGI (SW-620 colon) | TGI (TK-10 renal) | TGI (DU-145 prostate) | TGI (SK-MEL-28 melanoma) | TGI (SK-MEL-5 melanoma) | TGI (SN12C renal) | TGI (KM12 colon) | TGI (U251 CNS) | TGI (786-0 renal) | TGI (MDA-MB-231 breast) | TGI (SF-295 CNS) | TGI (UACC-62 melanoma) | TGI (A549 NSCLC) | TGI (CCRF-CEM leukemia) | TGI (MDA-MB-435) | TGI (NCI-H460 lung) | TGI (SNB-19 CNS) | TGI (PC-3 prostate) | TGI (NCI/ADR-RES ovarian) | TGI (OVCAR-8 ovarian) | TGI (HCT-15 colon) | TGI (SF-268 CNS) | TGI (OVCAR-3 ovarian) | TGI (EKVX NSCLC) | TGI (LOX IMVI melanoma) | TGI (MCF7 breast) | TGI (HCC-2998 colon)
inactive: GI50 (HL-60(TB) leukemia) 695 nM | GI50 (SF-539 CNS) 1390 nM | GI50 (HT29 colon) 940 nM | GI50 (SW-620 colon) 608 nM | GI50 (DU-145 prostate) 995 nM | GI50 (SK-MEL-28 melanoma) 2320 nM | GI50 (SK-MEL-5 melanoma) 7440 nM | GI50 (SN12C renal) 705 nM | GI50 (RPMI-8226 leukemia) 475 nM | GI50 (HOP-62 NSCLC) 435 nM | GI50 (U251 CNS) 846 nM | GI50 (786-0 renal) 649 nM | GI50 (NCI-H226 lung) 958 nM | GI50 (MDA-MB-231 breast) 523 nM | GI50 (SF-295 CNS) 1090 nM | GI50 (UACC-62 melanoma) 486 nM | GI50 (NCI-H23 lung) 966 nM | GI50 (BT-549 breast) 1610 nM | GI50 (A549 NSCLC) 682 nM | GI50 (CCRF-CEM leukemia) 1580 nM | GI50 (MDA-MB-435) 693 nM | GI50 (OVCAR-5 ovarian) 504 nM | GI50 (MALME-3M melanoma) 431 nM | GI50 (NCI/ADR-RES ovarian) 3000 nM | GI50 (OVCAR-8 ovarian) 3170 nM | GI50 (SK-MEL-2 melanoma) 432 nM | GI50 (SF-268 CNS) 1340 nM | GI50 (OVCAR-3 ovarian) 966 nM | GI50 (SR leukemia) 452 nM | GI50 (OVCAR-4 ovarian) 683 nM | GI50 (UACC-257 melanoma) 863 nM | GI50 (EKVX NSCLC) 1930 nM | GI50 (LOX IMVI melanoma) 606 nM | GI50 (MOLT-4 leukemia) 546 nM | GI50 (HCC-2998 colon) 2470 nM
> 7770 nM: TGI (K-562 leukemia)
> 2370 nM: TGI (HS 578T breast)
1540 nM: TGI (SK-OV-3 ovarian)
> 5710 nM: TGI (SR leukemia)
